{"source": "patent US7259140B2", "about": "“Heparin-binding peptides and uses thereof” (Thomas Jefferson University, priority 2003, dated 2007)", "key": {"[1]": {"experiment": "Hemodynamic effects in rats without prior Lovenox", "details": "2 mg per rat, no Lovenox", "experimental": "Rats were sedated, and catheters were inserted into the femoral vein and femoral artery. The femoral artery catheter was hooked up to the computerized monitoring system, and injections were made through the femoral vein. Peptides were injected into rats without prior injection of Lovenox. Two or more rats (300-350 grams) were treated with 2 mg protamine or peptide.\nAt the times indicated in the figures, the following actions were taken: administration of saline to insure that the animal and intubations were stable; administration of test peptide or protamine alone; then administration of protamine."}, "[2]": {"system": "anti-Factor Xa Activity of the Low Molecular Weight Heparin Lovenox ®", "experiment": "Anti-Factor Xa assay (Stachrom Heparin kit): neutralization of Lovenox in citrate or plasma in vitro", "type": "biochemical, human", "details": "for Lovenox ® Neutralized: Lovenox 0.7 U/ml", "method": "(§1) The ability of peptides such as (ARKKAAKA)3VLVLVLVL (SEQ ID NO:5) to neutralize the anti-Factor Xa activity of UFH and LMWH in vitro was tested using the Stachrom Heparin kit (Diagnostica Stago), a standard hematology laboratory assay used to measure the anti-Factor Xa activity of heparin. The assay was performed using the low molecular weight heparin enoxaparin sodium (Lovenox®, Aventis Pharmaceuticals, Inc.), unfractionated heparin (UFH), or the non-heparin glycosaminoglycan danaparoid sodium (Orgaran®, Organon Inc., West Orange, N.J.) in 0.32% citrate or in plasma anticoagulated with 0.32% citrate. Enoxaparin is commonly used clinically as a low molecular weight heparin (LMWH). Danaparoid is commonly used clinically as a non-heparin glycosaminoglycan anticoagulant. Currently, the only FDA approved drug to target UFH is protamine, which is not effective in vivo against LMWH or a non-heparin glycosaminoglycan such as danaparoid. Buffer and ATIII are added to form the heparin/ATIII complex, peptide is added, then Factor Xa, reporter dye substrate for Factor Xa activity, and stop solution, and the dye concentration is read at 405 nm. The absorbance of the dye increases with increasing Factor Xa activity, and thus is inversely proportional to the heparin (anti-Factor Xa activity) concentration. Peptides were tested in plasma obtained from three volunteers (A, B, and C). Platelet function inhibitors PG12 and theophylline were added to the blood immediately upon collection.\nResults. […] (ARKKAAKA)3VLVLVLVL (SEQ ID NO:5) and VLVL(ARKKAAKA)3ARKKCAKA (SEQ ID NO:38) were able to neutralize about 0.4 U/ml anti-Factor Xa activity of LMWH at a concentration of 12 μg/ml, which would be an effective dose for patients. (AKKARA)6 (SEQ ID […]), (ARKKAAKA)4 (SEQ ID NO:31) and (ARKKAAKA)3ARKKCAKA […] 0.3-0.35 U/ml. In contrast, 12 μg protamine only neutralized about 0.25 U/ml of LMWH under these conditions."}, "[3]": {"system": "Anti-Factor Xa Activity of the Non-Heparin Glycosaminoglycan Orgaran ®", "experiment": "Anti-Factor Xa assay: neutralization of Orgaran in citrate or plasma in vitro", "type": "biochemical, human", "method": "as §1, with “collection. […]” for “collection.”"}, "[4]": {"system": "Lovenox ® Activity in Blood from Patients Treated with Lovenox ®", "experiment": "Neutralizing Lovenox activity in blood from patients treated with Lovenox (anti-Factor Xa assay)", "type": "biochemical, human", "details": "Peptide 12 μg/ml", "method": "Blood was obtained from volunteers who were being treated with Lovenox® for their medical conditions after obtaining signatures on informed consent forms as approved by the Institutional Review Board. The assays to test neutralization of Lovendx® were performed as described for Table 2. A dose response from 1-60 μg/ml was evaluated as in Table 2.\nThe dose response pattern for the effective peptides was similar to the dose response in control plasma to which Lovenox® had been added. Each data point represents the mean and standard deviation of triplicate analyses on the same sample of blood from each patient."}}, "note": "Bridge positions count the residues as written; N and C are the ends. Peptide text beside a SMILES is read from it."}
{"smiles": "C[C@@H]1NC(=O)[C@H](C)NC(=O)[C@H](CCCCN)NC(=O)[C@H](CCCCN)NC(=O)[C@H](CCCNC(=N)N)NC(=O)[C@H](C)NC(=O)[C@H](C)NC(=O)[C@H](CCCCN)NC(=O)[C@H](C)NC(=O)[C@H](C)NC(=O)[C@H](CCCCN)NC(=O)[C@H](CCCCN)NC(=O)[C@H](CCCNC(=N)N)NC(=O)[C@H](C)NC(=O)[C@@H](N)CSSC[C@@H](C(=O)O)NC(=O)[C@H](C)NC(=O)[C@H](CCCCN)NC(=O)[C@H](C)NC(=O)[C@H](C)NC(=O)[C@H](CCCCN)NC(=O)[C@H](CCCCN)NC(=O)[C@H](CCCNC(=N)N)NC(=O)[C@H](C)NC(=O)[C@H](C)NC(=O)[C@H](CCCCN)NC(=O)[C@H](C)NC(=O)[C@H](C)NC(=O)[C@H](CCCCN)NC(=O)[C@H](CCCCN)NC(=O)[C@H](CCCNC(=N)N)NC(=O)[C@H](C)NC(=O)[C@H](C)NC(=O)[C@H](CCCCN)NC1=O", "note": "[C(ARKKAAKA)4C, cyclized C(ARKKAAKA)4C] (H-CARKKAAKAARKKAAKAARKKAAKAARKKAAKAC-OH; disulfide 1-34)", "values": [{"measurement": "effect on blood pressure", "setting": "[1]", "result": "did not cause a change in blood pressure"}, {"measurement": "Lovenox ® Neutralized", "setting": "[2]; 1 μg/ml Peptide, A Plasma", "result": "0.034 ± 0.019", "unit": "U/ml"}, {"measurement": "Lovenox ® Neutralized", "setting": "[2]; 1 μg/ml Peptide, B Plasma", "result": "0.022 ± 0.009", "unit": "U/ml"}, {"measurement": "Lovenox ® Neutralized", "setting": "[2]; 1 μg/ml Peptide, C Plasma", "result": "0.011 ± 0.005", "unit": "U/ml"}, {"measurement": "Lovenox ® Neutralized", "setting": "[2]; 1 μg/ml Peptide, Citrate", "result": "0.058 ± 0.039", "unit": "U/ml"}, {"measurement": "Lovenox ® Neutralized", "setting": "[2]; 6 μg/ml Peptide, A Plasma", "result": "0.102 ± 0.012", "unit": "U/ml"}, {"measurement": "Lovenox ® Neutralized", "setting": "[2]; 6 μg/ml Peptide, B Plasma", "result": "0.126 ± 0.039", "unit": "U/ml"}, {"measurement": "Lovenox ® Neutralized", "setting": "[2]; 6 μg/ml Peptide, C Plasma", "result": "0.092 ± 0.014", "unit": "U/ml"}, {"measurement": "Lovenox ® Neutralized", "setting": "[2]; 6 μg/ml Peptide, Citrate", "result": "0.245 ± 0.064", "unit": "U/ml"}, {"measurement": "Lovenox ® Neutralized", "setting": "[2]; 12 μg/ml Peptide, A Plasma", "result": "0.213 ± 0.048", "unit": "U/ml"}, {"measurement": "Lovenox ® Neutralized", "setting": "[2]; 12 μg/ml Peptide, B Plasma", "result": "0.251 ± 0.098", "unit": "U/ml"}, {"measurement": "Lovenox ® Neutralized", "setting": "[2]; 12 μg/ml Peptide, C Plasma", "result": "0.218 ± 0.047", "unit": "U/ml"}, {"measurement": "Lovenox ® Neutralized", "setting": "[2]; 12 μg/ml Peptide, Citrate", "result": "0.474 ± 0.024", "unit": "U/ml"}, {"measurement": "Lovenox ® Neutralized", "setting": "[2]; 60 μg/ml Peptide, A Plasma", "result": "0.496 ± 0.016", "unit": "U/ml"}, {"measurement": "Lovenox ® Neutralized", "setting": "[2]; 60 μg/ml Peptide, B Plasma", "result": "0.506 ± 0.012", "unit": "U/ml"}, {"measurement": "Lovenox ® Neutralized", "setting": "[2]; 60 μg/ml Peptide, C Plasma", "result": "0.522 ± 0.009", "unit": "U/ml"}, {"measurement": "Lovenox ® Neutralized", "setting": "[2]; 60 μg/ml Peptide, Citrate", "result": "0.554 ± 0.023", "unit": "U/ml"}, {"measurement": "Lovenox ® Neutralized", "setting": "[2]; 120 μg/ml Peptide, A Plasma", "result": "0.551 ± 0.031", "unit": "U/ml"}, {"measurement": "Lovenox ® Neutralized", "setting": "[2]; 120 μg/ml Peptide, B Plasma", "result": "0.538 ± 0.013", "unit": "U/ml"}, {"measurement": "Lovenox ® Neutralized", "setting": "[2]; 120 μg/ml Peptide, C Plasma", "result": "0.592 ± 0.019", "unit": "U/ml"}, {"measurement": "Lovenox ® Neutralized", "setting": "[2]; 120 μg/ml Peptide, Citrate", "result": "0.525 ± 0.028", "unit": "U/ml"}, {"measurement": "anti-LMWH effect in citrate compared with plasma", "setting": "[2]; Table 2A", "result": "greater anti-LMWH effect in citrate than in plasma"}, {"measurement": "Orgaran Neutralized", "setting": "[3]; 1 μg/ml Peptide, A Plasma", "result": "0.016 ± 0.012", "unit": "U/ml"}, {"measurement": "Orgaran Neutralized", "setting": "[3]; 1 μg/ml Peptide, B Plasma", "result": "0.038 ± 0.036", "unit": "U/ml"}, {"measurement": "Orgaran Neutralized", "setting": "[3]; 1 μg/ml Peptide, C Plasma", "result": "0.008 ± 0.005", "unit": "U/ml"}, {"measurement": "Orgaran Neutralized", "setting": "[3]; 1 μg/ml Peptide, Citrate", "result": "0.072 ± 0.052", "unit": "U/ml"}, {"measurement": "Orgaran Neutralized", "setting": "[3]; 6 μg/ml Peptide, A Plasma", "result": "0.074 ± 0.049", "unit": "U/ml"}, {"measurement": "Orgaran Neutralized", "setting": "[3]; 6 μg/ml Peptide, B Plasma", "result": "0.027 ± 0.016", "unit": "U/ml"}, {"measurement": "Orgaran Neutralized", "setting": "[3]; 6 μg/ml Peptide, C Plasma", "result": "0.030 ± 0.009", "unit": "U/ml"}, {"measurement": "Orgaran Neutralized", "setting": "[3]; 6 μg/ml Peptide, Citrate", "result": "0.099 ± 0.062", "unit": "U/ml"}, {"measurement": "Orgaran Neutralized", "setting": "[3]; 12 μg/ml Peptide, A Plasma", "result": "0.050 ± 0.031", "unit": "U/ml"}, {"measurement": "Orgaran Neutralized", "setting": "[3]; 12 μg/ml Peptide, B Plasma", "result": "0.082 ± 0.029", "unit": "U/ml"}, {"measurement": "Orgaran Neutralized", "setting": "[3]; 12 μg/ml Peptide, C Plasma", "result": "0.063 ± 0.025", "unit": "U/ml"}, {"measurement": "Orgaran Neutralized", "setting": "[3]; 12 μg/ml Peptide, Citrate", "result": "0.180 ± 0.023", "unit": "U/ml"}, {"measurement": "Orgaran Neutralized", "setting": "[3]; 60 μg/ml Peptide, A Plasma", "result": "0.287 ± 0.033", "unit": "U/ml"}, {"measurement": "Orgaran Neutralized", "setting": "[3]; 60 μg/ml Peptide, B Plasma", "result": "0.282 ± 0.020", "unit": "U/ml"}, {"measurement": "Orgaran Neutralized", "setting": "[3]; 60 μg/ml Peptide, C Plasma", "result": "0.250 ± 0.030", "unit": "U/ml"}, {"measurement": "Orgaran Neutralized", "setting": "[3]; 60 μg/ml Peptide, Citrate", "result": "0.319 ± 0.016", "unit": "U/ml"}, {"measurement": "Orgaran Neutralized", "setting": "[3]; 120 μg/ml Peptide, A Plasma", "result": "0.389 ± 0.118", "unit": "U/ml"}, {"measurement": "Orgaran Neutralized", "setting": "[3]; 120 μg/ml Peptide, B Plasma", "result": "0.374 ± 0.062", "unit": "U/ml"}, {"measurement": "Orgaran Neutralized", "setting": "[3]; 120 μg/ml Peptide, C Plasma", "result": "0.335 ± 0.012", "unit": "U/ml"}, {"measurement": "Orgaran Neutralized", "setting": "[3]; 120 μg/ml Peptide, Citrate", "result": "0.340 ± 0.010", "unit": "U/ml"}, {"measurement": "Lovenox ® Neutralized", "setting": "[4]; blood of Lovenox-treated Patient Number 1", "result": 0.164, "unit": "U/ml"}, {"measurement": "Lovenox ® Neutralized", "setting": "[4]; blood of Lovenox-treated Patient Number 2", "result": 0.132, "unit": "U/ml"}, {"measurement": "Lovenox ® Neutralized", "setting": "[4]; blood of Lovenox-treated Patient Number 3", "result": 0.119, "unit": "U/ml"}, {"measurement": "Lovenox ® Neutralized", "setting": "[4]; blood of Lovenox-treated Patient Number 4", "result": 0.337, "unit": "U/ml"}, {"measurement": "Lovenox ® Neutralized", "setting": "[4]; blood of Lovenox-treated Patient Number 5", "result": 0.230, "unit": "U/ml"}, {"measurement": "Lovenox ® Neutralized", "setting": "[4]; blood of Lovenox-treated Patient Number 8", "result": 0.163, "unit": "U/ml"}, {"measurement": "Lovenox ® Neutralized", "setting": "[4]; blood of Lovenox-treated Patient Number 9", "result": 0.418, "unit": "U/ml"}, {"measurement": "Lovenox ® Neutralized", "setting": "[4]; blood of Lovenox-treated Patient Number 10", "result": 0.302, "unit": "U/ml"}, {"measurement": "Lovenox ® Neutralized", "setting": "[4]; blood of Lovenox-treated Patient Number 11", "result": 0.175, "unit": "U/ml"}]}
